Measured values published in patent US12022844B2, “Nutritional composition, food/drink composition using nutritional composition, and modified milk powder using nutritional composition” (priority 2018, dated 2024).

Columns and labels:
[1] = test system: Bifidobacterium animalis subspecies lactis MCC-525; test: Mix-culturing with Bifidobacterium bifidum by HMO as sugar source, quantitative PCR; assay type: cell-based; conditions: for Proliferation rate (number of bacteria after mix-culturing for 8 h/number of bacteria after single bacterial culturing): MCC-525 mix-cultured with Bifidobacterium bifidum (NITE BP-02429), sugar source 2%, Table 8; for Proliferation rate of MCC-525 (mix-cultured bacteria after 8 h/single bacterial culturing 8 h): Table 10; for number of proliferating bacteria of MCC-525 in combination with seven strains of Bifidobacterium bifidum compared to single bacterium culture: summary of Table 10
Protocol: (§1) A10% solution of glucose (manufactured by Nakarai Tesque Inc.), and 2′-FL ((≥95%) Funakoshi, available from sigma), and LNnT (manufactured by ELICITYL) as examples of HMOs was prepared with ion exchanged water, and was subjected to sterile filtration using Millex-GV (SLGV033RS).
(§2) Lactobacilli MRS Broth (BD) (0.05% L-Cysteine Hydrochloride for Bacteria of the genus Bifidobacterium) was added to strains of Table 1 below (bacteria belonging to Bifidobacterium bifidum) and Table 2 below. After a sterilization treatment, 3% of the bacterial solution was inoculated, and anaerobically cultured (pre-pre cultured) at 37° C. for 16 h.
(§3) The following day, 1% glucose was added to a modified BL agar medium (“Studies on Bifidobacteria” by Tomotari Mitsuoka, p. 306, Japan Bifidus Foundation, issued in 1994) noted in Table 3, for preparation. After a sterilization treatment, 3% of the pre-pre cultured bacterial solution was inoculated, and anaerobically pre-cultured (pre-cultured) at 37° C. for 12 h.
(§4) The pre-cultured bacterial solution was collected and washed once with a sterile physiological saline solution. Then, mass-up was performed to an equal volume with the modified BL agar medium (“Studies on Bifidobacteria” by Tomotari Mitsuoka, p. 306, Japan Bifidus Foundation, issued in 1994) noted in Table 3 to prepare a suspended bacterial solution.
(§5) The modified BL agar medium (“Studies on Bifidobacteria” by Tomotari Mitsuoka, p. 306, Japan Bifidus Foundation, issued in 1994) noted in Table 3 was prepared at a capacity of 60%, and was subjected to an autoclave sterilization treatment. Then, 40% of each sugar solution prepared in (1) was aseptically added so as to prepare a medium with a sugar concentration of 4%.
(§6) The medium prepared in the above (3) was dispensed at a capacity that is half the capacity for aseptic culturing in a 96-well plate, and each of the bacterial solutions of strains of bacteria belonging to Bifidobacterium bifidum in Table 1 and probiotics having a low ability to assimilate human milk oligosaccharides in Table 2, which was prepared in the above (2), was dispensed at a remaining […] capacity into the medium prepared in the above (3) such that the bacterial solution had 12%. Then, a final sugar concentration was set to 2%. The plate into which the bacterial solution was dispensed was anaerobically cultured at 37° C. for 8 h.
(§7) OD650 was measured from each well in the plates in the above (4) and the above (5) before (0 h) culturing and after (8 h) culturing, by MICROPLATE READER SH-9000 (manufactured by CORONA ELECTRIC). After turbidity measurement, microbial cells were collected, and DNA extraction was performed. After the DNA extraction, the number of proliferating bacteria of Bifidobacteria/lactobacilli was analyzed by using the bacterial species-specific primer noted in Table 4, by a quantitative PCR method (see “Structural analysis of intestinal flora”—analysis of bacterial flora in human feces using quantitative PCR—by Kouichi Watanabe, Enterobacteriological journal, 20:35-42, 2006).
(§8) It was decided to culture Bifidobacterium bifidum (NITE BP-02429) in which availability of 2′-FL or LNnT was found as described above, in combination with strains in Table 2, which cannot use 2′-FL or LNnT. Bifidobacterium bifidum (NITE BP-02429) and the strains in Table 2, which cannot use 2′-FL or LNnT, were mix-cultured by 2′-FL or LNnT as a sugar source, and after culturing for 8 h, the proliferation rate of the number of bacteria of each strain (proliferation rate=the number of bacteria after mix-culturing for 8 h/the number of bacteria after single bacterial culturing) was measured by a quantitative PCR method using each strain-specific oligonucleotide primer noted in Table 4, for the strain in Table 2.
Seven strains of Bifidobacterium bifidum in Table 1 and Bifidobacterium animalis subspecies lactis MCC-525 which cannot use 2′-FL or LNnT were mix-cultured by 2′-FL or LNnT as a sugar source. […]

[2] = test system: Lactobacillus rhamnosus ATCC7469; test: as above; assay type: cell-based; conditions: ATCC 7469^T mix-cultured with Bifidobacterium bifidum (NITE BP-02429), sugar source 2%, Table 8
Protocol: as §1, §2, §3, §4, §5, §6, §7, §8

[3] = test system: Bifidobacterium pseudolongum ATCC25526; test: as above; assay type: cell-based; conditions: ATCC 25526^T mix-cultured with Bifidobacterium bifidum (NITE BP-02429), sugar source 2%, Table 8
Protocol: as §1, §2, §3, §4, §5, §6, §7, §8

[4] = test system: Lactobacillus plantarum ATCC14917; test: as above; assay type: cell-based; conditions: ATCC 14917^T mix-cultured with Bifidobacterium bifidum (NITE BP-02429), sugar source 2%, Table 8
Protocol: as §1, §2, §3, §4, §5, §6, §7, §8

[5] = test system: Bifidobacterium adolescentis ATCC15703; test: as above; assay type: cell-based; conditions: ATCC 15703^7 mix-cultured with Bifidobacterium bifidum (NITE BP-02429), sugar source 2%, Table 8
Protocol: as §1, §2, §3, §4, §5, §6, §7, §8

[6] = test system: Bifidobacterium peseudocatenulatum ATCC27919; test: as above; assay type: cell-based, Bifidobacterium pseudocatenulatum; conditions: ATCC 27919^T mix-cultured with Bifidobacterium bifidum (NITE BP-02429), sugar source 2%, Table 8
Protocol: as §1
as §2, with “h. […]” for “h.”
OD650 was measured from each well in the plates in the above (4) and the above (5) before (0 h) culturing and after (8 h) culturing, by MICROPLATE READER SH-9000 (manufactured by CORONA ELECTRIC). […] After the DNA extraction, the number of proliferating bacteria of Bifidobacteria/lactobacilli was analyzed by using the bacterial species-specific primer noted in Table 4, by a quantitative PCR method (see “Structural analysis of intestinal flora”—analysis of bacterial flora in human feces using quantitative PCR—by Kouichi Watanabe, Enterobacteriological journal, 20:35-42, 2006). […]

[7] = test system: Lactobacillus paracasei ATCC25302; test: Single bacterial culturing with HMO as sugar source, OD650; assay type: cell-based; conditions: ATCC 25302^T, sugar source 2%, 8 h
Protocol: as §1, §2, §3, §4, §5
(§9) The medium prepared in the above (3) was dispensed at a capacity that is half the capacity for culturing in a 96-well plate, and the bacterial solution prepared in the above (2) was dispensed at a remaining half capacity such that the bacterial solution had 6%. Then, a final sugar concentration was set to 2%. The plate into which the bacterial solution was dispensed was anaerobically cultured at 37° C. for 8 h.
as §7
(§10) Regarding strains in Table 2, each strain was cultured as a single bacterium by 2′-FL or LNnT (HMOs) as a sugar source, and OD650 was measured. The results for 2′-FL are noted in Table 6 below, and the results for LNnT are noted in Table 7 below.

[8] = test system: bacteria belonging to Bifidobacterium bifidum in Table 1; test: Availability of HMOs by bacteria belonging to Bifidobacterium bifidum (single culturing, summary); assay type: cell-based; conditions: single bacterial culturing, 8 h; summary of Table 5
Protocol: as §9, §7
Regarding bacteria belonging to Bifidobacterium bifidum in Table 1, each strain was cultured as a single bacterium by 2′-FL or LNnT (HMOs) as a sugar source, and OD650 was measured. […]

[9] = test system: strains in Table 2 except for Bifidobacterium infantis; test: Availability of HMOs by probiotics (single culturing, summary); assay type: cell-based; conditions: single bacterial culturing, 8 h; summary of Tables 6 and 7
Protocol: as §9, §7, §10

[10] = mix-cultured with Bifidobacterium bifidum ATCC 29521^T
[11] = mix-cultured with Bifidobacterium bifidum NITE BP-1252
[12] = mix-cultured with Bifidobacterium bifidum NITE BP-02429
[13] = mix-cultured with Bifidobacterium bifidum NITE BP-02431
[14] = mix-cultured with Bifidobacterium bifidum NITE BP-02432
[15] = mix-cultured with Bifidobacterium bifidum NITE BP-02433
[16] = mix-cultured with Bifidobacterium bifidum NITE P-02648

Compound	Proliferation rate (number of bacteria after mix-culturing for 8 h/number of bacteria after single bacterial culturing) [1]	Proliferation rate of MCC-525 (mix-cultured bacteria after 8 h/single bacterial culturing 8 h) [1, 10]	Proliferation rate of MCC-525 (mix-cultured bacteria after 8 h/single bacterial culturing 8 h) [1, 11]	Proliferation rate of MCC-525 (mix-cultured bacteria after 8 h/single bacterial culturing 8 h) [1, 12]	Proliferation rate of MCC-525 (mix-cultured bacteria after 8 h/single bacterial culturing 8 h) [1, 13]	Proliferation rate of MCC-525 (mix-cultured bacteria after 8 h/single bacterial culturing 8 h) [1, 14]	Proliferation rate of MCC-525 (mix-cultured bacteria after 8 h/single bacterial culturing 8 h) [1, 15]	Proliferation rate of MCC-525 (mix-cultured bacteria after 8 h/single bacterial culturing 8 h) [1, 16]	number of proliferating bacteria of MCC-525 in combination with seven strains of Bifidobacterium bifidum compared to single bacterium culture [1]	Proliferation rate (number of bacteria after mix-culturing for 8 h/number of bacteria after single bacterial culturing) [2]	Proliferation rate (number of bacteria after mix-culturing for 8 h/number of bacteria after single bacterial culturing) [3]	Proliferation rate (number of bacteria after mix-culturing for 8 h/number of bacteria after single bacterial culturing) [4]	Proliferation rate (number of bacteria after mix-culturing for 8 h/number of bacteria after single bacterial culturing) [5]	Proliferation rate (number of bacteria after mix-culturing for 8 h/number of bacteria after single bacterial culturing) [6]	OD650 increase value ([7]; Table 6)	assimilability by all the bacteria belonging to Bifidobacterium bifidum in Table 1 [8]	assimilability by strains in Table 2 except for Bifidobacterium infantis [9]	proliferation promotion effect of the number of bacteria of MCC-525 ([1]; in the combination with Bifidobacterium bifidum (NITE BP-1252))	OD650 increase value ([7]; Table 7)
2′-fucosyllactose [2′-FL]	2.62	2.01	2.06	4.85	3.82	2.45	3.67	4.35	promoted	2.69	1.24	1.76	1.91	3.08	−0.011	had assimilability	had no assimilability in 2′-FL or LNnT (HMOs), or a low assimilability	–	–
CC(=O)N[C@H]1[C@H](O[C@H]2[C@@H](O)[C@@H](CO)O[C@@H](O[C@H]3[C@H](O)[C@@H](O)C(O)O[C@@H]3CO)[C@@H]2O)O[C@H](CO)[C@@H](O[C@@H]2O[C@H](CO)[C@H](O)[C@H](O)[C@H]2O)[C@@H]1O (mixture of isomers) [LNnT, lacto-N-neotetraose]	1.41	3.87	19.98	4.17	3.58	4.21	2.39	6.03	promoted	5.03	0.98	2.58	1.53	1.55	–	had assimilability	had no assimilability in 2′-FL or LNnT (HMOs), or a low assimilability	significantly higher	0.052
